# Measurements: patent publication US9695155B2, “Herbicidal substituted pyrimidinyloxy benzene compounds” (E. I. DU PONT DE NEMOURS AND COMPANY, priority 2013, dated 2017)
# Legend:
# wild radish = experiment: Test D postemergence; format: in vivo, Raphanus raphanistrum
# Excerpt: (§1) Seeds of plant species selected from bluegrass (annual bluegrass, Poa annua), blackgrass (Alopecurus myosuroides), canarygrass (littleseed canarygrass, Phalaris minor), chickweed (common chickweed, Stellaria media), galium (catchweed bedstraw, Galium aparine), bromegrass, downy (downy bromegrass, Bromus tectorum), field poppy (Papaver rhoeas), field violet (Viola arvensis), green foxtail (Setaria viridis), deadnettle (henbit deadnettle, Lamium amplexicaule), Italian ryegrass (Lolium multiflorum), kochia (Kochia scoparia), lambsquarters (Chenopodium album), oilseed rape (Brassica napus), pigweed (Amaranthus retroflexus), chamomile (scentless chamomile, Matricaria inodora), Russian thistle (Salsola kali), speedwell (bird's-eye speedwell, Veronica persica), spring barley (Hordeum vulgare), spring wheat (Triticum aestivum), wild buckwheat (Polygonum convolvulus), wild mustard (Sinapis arvensis), wild oat (Avena fatua), wild radish (Raphanus raphanistrum), windgrass (Apera spica-venti), winter barley (Hordeum vulgare), and winter wheat (Triticum aestivum) were planted into a silt loam soil and treated preemergence with test chemicals formulated in a non-phytotoxic solvent mixture which included a surfactant.
# (§2) At the same time, these species were planted in pots containing Redi-Earth® planting medium (Scotts Company, 14111 Scottslawn Road, Marysville, Ohio 43041) comprising spaghnum peat moss, vermiculite, wetting agent and starter nutrients and treated with postemergence applications of the test chemicals formulated in the same manner. Plants ranged in height from 2 to 18 cm (1- to 4-leaf stage). Treated plants and controls were maintained in a controlled growth environment for 7 to 21 days after which time all species were compared to controls and visually evaluated. Plant response ratings, summarized in Table D, are based on a scale of 0 to 100 where 0 is no effect and 100 is complete control. A dash (-) response means no test result.
# Italian ryegrass = experiment: Test D postemergence; format: in vivo, Lolium multiflorum
# Excerpt: as §1, §2
# speedwell [1] = experiment: Test D preemergence; format: in vivo, Veronica persica
# Excerpt: as §1, §2
# wild oat = experiment: Test D postemergence; format: in vivo, Avena fatua
# Excerpt: as §1, §2
# bluegrass = experiment: Test D preemergence; format: in vivo, Poa annua
# Excerpt: as §1, §2
# oilseed rape [2] = experiment: Test D preemergence; format: in vivo, Brassica napus
# Excerpt: as §1, §2
# spring wheat = experiment: Test D preemergence; format: in vivo, Triticum aestivum
# Excerpt: as §1, §2
# winter wheat = experiment: Test D preemergence; format: in vivo, Triticum aestivum
# Excerpt: as §1, §2
# lambsquarters = experiment: Test D preemergence; format: in vivo, Chenopodium album
# Excerpt: as §1, §2
# speedwell [3] = experiment: Test D postemergence; format: in vivo, Veronica persica
# Excerpt: as §1, §2
# oilseed rape [4] = experiment: Test D postemergence; format: in vivo, Brassica napus
# Excerpt: as §1, §2
# [5] = 31 g ai/ha, scale 0 to 100 (0 no effect, 100 complete control)
# [6] = 62 g ai/ha, scale 0 to 100 (0 no effect, 100 complete control)
# [7] = 125 g ai/ha, scale 0 to 100 (0 no effect, 100 complete control)
# [8] = 250 g ai/ha, scale 0 to 100 (0 no effect, 100 complete control)
# [9] = 16 g ai/ha, scale 0 (no effect) to 100 (complete control)
# [10] = 31 g ai/ha, scale 0 (no effect) to 100 (complete control)
structure (smiles),measurement,setting,value
Clc1cnc(Oc2ccccc2-n2cc(Cl)cn2)nc1 [Compound 3],"Plant response rating, Radish, Wild","wild radish; 16 g ai/ha, scale 0-100",70
same,"Plant response rating, Radish, Wild",wild radish; [5],30
same,"Plant response rating, Radish, Wild",wild radish; [6],40
same,"Plant response rating, Radish, Wild",wild radish; [7],50
same,"Plant response rating, Radish, Wild",wild radish; [8],75
same,"Plant response rating, Ryegrass, Italian","Italian ryegrass; 16 g ai/ha, scale 0-100",60
same,"Plant response rating, Ryegrass, Italian",Italian ryegrass; [5],0
same,"Plant response rating, Ryegrass, Italian",Italian ryegrass; [6],0
same,"Plant response rating, Ryegrass, Italian",Italian ryegrass; [7],0
same,"Plant response rating, Ryegrass, Italian",Italian ryegrass; [8],0
same,"Plant response rating, Speedwell",speedwell [1]; [9],100
same,"Plant response rating, Speedwell",speedwell [1]; [10],100
same,"Plant response rating, Speedwell","speedwell [1]; 62 g ai/ha, scale 0-100",100
same,"Plant response rating, Speedwell","speedwell [1]; 125 g ai/ha, scale 0-100",100
same,"Plant response rating, Speedwell","speedwell [1]; 250 g ai/ha, scale 0-100",100
same,"Plant response rating, Oat, Wild","wild oat; 16 g ai/ha, scale 0-100",70
same,"Plant response rating, Oat, Wild",wild oat; [5],0
same,"Plant response rating, Oat, Wild",wild oat; [6],0
same,"Plant response rating, Oat, Wild",wild oat; [7],0
same,"Plant response rating, Oat, Wild",wild oat; [8],0
same,"Plant response rating, Bluegrass",bluegrass; [9],0
same,"Plant response rating, Bluegrass","bluegrass; 31 g ai/ha, scale 0-100",0
same,"Plant response rating, Bluegrass","bluegrass; 62 g ai/ha, scale 0-100",0
same,"Plant response rating, Bluegrass","bluegrass; 125 g ai/ha, scale 0-100",20
same,"Plant response rating, Bluegrass","bluegrass; 250 g ai/ha, scale 0-100",40
same,"Plant response rating, Oilseed Rape",oilseed rape [2]; [9],10
same,"Plant response rating, Oilseed Rape","oilseed rape [2]; 31 g ai/ha, scale 0-100",75
same,"Plant response rating, Oilseed Rape","oilseed rape [2]; 62 g ai/ha, scale 0-100",70
same,"Plant response rating, Oilseed Rape","oilseed rape [2]; 125 g ai/ha, scale 0-100",100
same,"Plant response rating, Oilseed Rape","oilseed rape [2]; 250 g ai/ha, scale 0-100",100
same,"Plant response rating, Wheat, Spring",spring wheat; [9],0
same,"Plant response rating, Wheat, Spring",spring wheat; [10],0
same,"Plant response rating, Wheat, Spring","spring wheat; 62 g ai/ha, scale 0-100",0
same,"Plant response rating, Wheat, Spring","spring wheat; 125 g ai/ha, scale 0-100",0
same,"Plant response rating, Wheat, Spring","spring wheat; 250 g ai/ha, scale 0-100",0
same,"Plant response rating, Wheat, Winter",winter wheat; [9],0
same,"Plant response rating, Wheat, Winter",winter wheat; [10],0
same,"Plant response rating, Wheat, Winter","winter wheat; 62 g ai/ha, scale 0-100",0
same,"Plant response rating, Wheat, Winter","winter wheat; 125 g ai/ha, scale 0-100",0
same,"Plant response rating, Wheat, Winter","winter wheat; 250 g ai/ha, scale 0-100",0
same,"Plant response rating, Lambsquarters",lambsquarters; [9],0
same,"Plant response rating, Lambsquarters","lambsquarters; 31 g ai/ha, scale 0-100",0
same,"Plant response rating, Lambsquarters","lambsquarters; 62 g ai/ha, scale 0-100",0
same,"Plant response rating, Lambsquarters","lambsquarters; 125 g ai/ha, scale 0-100",25
same,"Plant response rating, Lambsquarters","lambsquarters; 250 g ai/ha, scale 0-100",50
same,"Plant response rating, Speedwell","speedwell [3]; 16 g ai/ha, scale 0-100",60
same,"Plant response rating, Speedwell",speedwell [3]; [5],30
same,"Plant response rating, Speedwell",speedwell [3]; [6],45
same,"Plant response rating, Speedwell",speedwell [3]; [7],60
same,"Plant response rating, Speedwell",speedwell [3]; [8],75
same,"Plant response rating, Oilseed Rape","oilseed rape [4]; 16 g ai/ha, scale 0-100",90
same,"Plant response rating, Oilseed Rape",oilseed rape [4]; [5],80
same,"Plant response rating, Oilseed Rape",oilseed rape [4]; [6],80
same,"Plant response rating, Oilseed Rape",oilseed rape [4]; [7],90
same,"Plant response rating, Oilseed Rape",oilseed rape [4]; [8],95
"Fc1cccc(Oc2ncc(Cl)cn2)c1-n1cc(Br)cn1 [Compound 178, 2-[2-(4-bromo-1H-pyrazol-1-yl)-3-fluorophenoxy]-5-chloropyrimidine]",pest or weed control at 16 g/ha,"wild radish; Raphanus raphanistrum, post-emergence, 16 g ai/ha, scale 0-100, read-out: Plant response rating, Radish, Wild",60%
same,pest or weed control at 31 g/ha,"wild radish; Raphanus raphanistrum, post-emergence, 31 g ai/ha, scale 0 to 100 (0 no effect, 100 complete control), read-out: Plant response rating, Radish, Wild",65%
same,pest or weed control at 62 g/ha,"wild radish; Raphanus raphanistrum, post-emergence, 62 g ai/ha, scale 0 to 100 (0 no effect, 100 complete control), read-out: Plant response rating, Radish, Wild",70%
same,pest or weed control at 125 g/ha,"wild radish; Raphanus raphanistrum, post-emergence, 125 g ai/ha, scale 0 to 100 (0 no effect, 100 complete control), read-out: Plant response rating, Radish, Wild",80%
same,pest or weed control at 16 g/ha,"Italian ryegrass; Lolium multiflorum, post-emergence, 16 g ai/ha, scale 0-100, read-out: Plant response rating, Ryegrass, Italian",0%
same,pest or weed control at 31 g/ha,"Italian ryegrass; Lolium multiflorum, post-emergence, 31 g ai/ha, scale 0 to 100 (0 no effect, 100 complete control), read-out: Plant response rating, Ryegrass, Italian",0%
same,pest or weed control at 62 g/ha,"Italian ryegrass; Lolium multiflorum, post-emergence, 62 g ai/ha, scale 0 to 100 (0 no effect, 100 complete control), read-out: Plant response rating, Ryegrass, Italian",5%
same,pest or weed control at 125 g/ha,"Italian ryegrass; Lolium multiflorum, post-emergence, 125 g ai/ha, scale 0 to 100 (0 no effect, 100 complete control), read-out: Plant response rating, Ryegrass, Italian",15%
same,pest or weed control at 16 g/ha,"speedwell [1]; Veronica persica, pre-emergence, 16 g ai/ha, scale 0 (no effect) to 100 (complete control), read-out: Plant response rating, Speedwell",100%
same,pest or weed control at 31 g/ha,"speedwell [1]; Veronica persica, pre-emergence, 31 g ai/ha, scale 0 (no effect) to 100 (complete control), read-out: Plant response rating, Speedwell",100%
same,pest or weed control at 62 g/ha,"speedwell [1]; Veronica persica, pre-emergence, 62 g ai/ha, scale 0-100, read-out: Plant response rating, Speedwell",100%
same,pest or weed control at 125 g/ha,"speedwell [1]; Veronica persica, pre-emergence, 125 g ai/ha, scale 0-100, read-out: Plant response rating, Speedwell",100%
same,pest or weed control at 16 g/ha,"wild oat; Avena fatua, post-emergence, 16 g ai/ha, scale 0-100, read-out: Plant response rating, Oat, Wild",20%
same,pest or weed control at 31 g/ha,"wild oat; Avena fatua, post-emergence, 31 g ai/ha, scale 0 to 100 (0 no effect, 100 complete control), read-out: Plant response rating, Oat, Wild",25%
same,pest or weed control at 62 g/ha,"wild oat; Avena fatua, post-emergence, 62 g ai/ha, scale 0 to 100 (0 no effect, 100 complete control), read-out: Plant response rating, Oat, Wild",25%
same,pest or weed control at 125 g/ha,"wild oat; Avena fatua, post-emergence, 125 g ai/ha, scale 0 to 100 (0 no effect, 100 complete control), read-out: Plant response rating, Oat, Wild",25%
same,pest or weed control at 16 g/ha,"bluegrass; Poa annua, pre-emergence, 16 g ai/ha, scale 0 (no effect) to 100 (complete control), read-out: Plant response rating, Bluegrass",0%
same,pest or weed control at 31 g/ha,"bluegrass; Poa annua, pre-emergence, 31 g ai/ha, scale 0-100, read-out: Plant response rating, Bluegrass",10%
same,pest or weed control at 62 g/ha,"bluegrass; Poa annua, pre-emergence, 62 g ai/ha, scale 0-100, read-out: Plant response rating, Bluegrass",20%
same,pest or weed control at 125 g/ha,"bluegrass; Poa annua, pre-emergence, 125 g ai/ha, scale 0-100, read-out: Plant response rating, Bluegrass",70%
same,plant injury at 16 g/ha,"oilseed rape [2]; Brassica napus, pre-emergence, 16 g ai/ha, scale 0 (no effect) to 100 (complete control), read-out: Plant response rating, Oilseed Rape",65%
same,plant injury at 31 g/ha,"oilseed rape [2]; Brassica napus, pre-emergence, 31 g ai/ha, scale 0-100, read-out: Plant response rating, Oilseed Rape",75%
same,plant injury at 125 g/ha,"oilseed rape [2]; Brassica napus, pre-emergence, 125 g ai/ha, scale 0-100, read-out: Plant response rating, Oilseed Rape",100%
same,pest or weed control at 16 g/ha,"lambsquarters; Chenopodium album, pre-emergence, 16 g ai/ha, scale 0 (no effect) to 100 (complete control), read-out: Plant response rating, Lambsquarters",20%
same,pest or weed control at 31 g/ha,"lambsquarters; Chenopodium album, pre-emergence, 31 g ai/ha, scale 0-100, read-out: Plant response rating, Lambsquarters",70%
same,pest or weed control at 62 g/ha,"lambsquarters; Chenopodium album, pre-emergence, 62 g ai/ha, scale 0-100, read-out: Plant response rating, Lambsquarters",80%
same,pest or weed control at 125 g/ha,"lambsquarters; Chenopodium album, pre-emergence, 125 g ai/ha, scale 0-100, read-out: Plant response rating, Lambsquarters",85%
same,pest or weed control at 16 g/ha,"speedwell [3]; Veronica persica, post-emergence, 16 g ai/ha, scale 0-100, read-out: Plant response rating, Speedwell",70%
same,pest or weed control at 31 g/ha,"speedwell [3]; Veronica persica, post-emergence, 31 g ai/ha, scale 0 to 100 (0 no effect, 100 complete control), read-out: Plant response rating, Speedwell",80%
same,pest or weed control at 62 g/ha,"speedwell [3]; Veronica persica, post-emergence, 62 g ai/ha, scale 0 to 100 (0 no effect, 100 complete control), read-out: Plant response rating, Speedwell",100%
same,pest or weed control at 125 g/ha,"speedwell [3]; Veronica persica, post-emergence, 125 g ai/ha, scale 0 to 100 (0 no effect, 100 complete control), read-out: Plant response rating, Speedwell",100%
same,plant injury at 16 g/ha,"oilseed rape [4]; Brassica napus, post-emergence, 16 g ai/ha, scale 0-100, read-out: Plant response rating, Oilseed Rape",60%
same,plant injury at 31 g/ha,"oilseed rape [4]; Brassica napus, post-emergence, 31 g ai/ha, scale 0 to 100 (0 no effect, 100 complete control), read-out: Plant response rating, Oilseed Rape",65%
same,plant injury at 62 g/ha,"oilseed rape [4]; Brassica napus, post-emergence, 62 g ai/ha, scale 0 to 100 (0 no effect, 100 complete control), read-out: Plant response rating, Oilseed Rape",80%
same,plant injury at 125 g/ha,"oilseed rape [4]; Brassica napus, post-emergence, 125 g ai/ha, scale 0 to 100 (0 no effect, 100 complete control), read-out: Plant response rating, Oilseed Rape",90%
